Reference: patent publication US8263369B2, “Compound ceramidastin, method for producing the same, and use of the same” (Microbial Chemistry Research Foundation, priority 2008, dated 2012)

Legend:
NC/Nga mice = assay: Therapeutic effects on atopic dermatitis-like model mice (mast cell count in skin); format: in vivo
Description: Atopic dermatitis-like model mice were used to test ceramidastin for the therapeutic effects on atopic dermatitis. Specifically, the above-obtained enzyme liquid was applied onto the mice to examine the aggravation degree of corneal layer of epidermis and inflammation. In addition, the enzyme liquid and ceramidastin were applied thereonto to examine the effects on the skin brought by inhibiting neutral/alkaline ceramidase activity.
The atopic dermatitis-like model mice used were 6-week-old NC/Nga female mice (product of Charles River). The above NC/Nga mice are used as an atopic dermatitis model (Hiroi et al. Jpn. J. Pharmacol. 76, 175-183, 1998) and have an increased number of mast cells in the skin tissue.
Hair was removed in advance from the 6-week-old NC/Nga female mice under anesthesia (six mice for each group). Subsequently, absorbent cotton impregnated with acetone-ether (1:1) was pressed for 15 sec against them under anesthesia by nembutal. […]
The procedure of the above defatting and applications of ceramidase and ceramidastin was repeated 47 times in total so that it was performed twice in the morning and evening for 5 days a week. […] The thus-formed tissue pieces were stained with toluidine blue, and the number of mast cells in the tissue was counted under a microscope.

[1] = target: T1, neutral/alkaline ceramidase (Pseudomonas aeruginosa, UniProt Q9I596); assay: Neutral/alkaline ceramidase activity inhibitory test; format: biochemical; settings: enzyme liquid from Pseudomonas aeruginosa culture; C12-NBD Ceramide substrate; pH 8.5; 37° C., 2.5 hours; TLC fluorescence; read-out: neutral/alkaline ceramidase inhibitory activity in terms of IC50 (converted)
T1 construct: the culture liquid was sterilized through filtration; endogenous in cells; host or cells: Pseudomonas aeruginosa (human clinical isolate), sterile-filtered culture supernatant, not purified
Experimental: A seed medium used was prepared as follows. Specifically, 3 g of Nissui Trypto-Soya Broth (product of Nissui Seiyaku) was dissolved in 100 mL of deionized water, and the resultant solution was dispensed into test tubes so that each test tube contained 3 mL of the solution, followed by high-pressure sterilization. Then, Pseudomonas aeruginosa (human clinical isolate) was inoculated into the seed medium in an amount of 2% by volume, and seed culturing was performed in a water bath at 37° C. and 100 rpm for 3 hours.
A synthetic medium for main culturing was prepared as follows. […]
Neutral/alkaline ceramidase activity was measured according to the method used by Okino et al. (J. Biol. Chem. 273, 14368-14373, 1998) with minor modifications. […]
The above solution (20 μL) was spotted onto a TLC plate (MERCK 25 TLC plates 20 cm×20 cm Silica gel 60 F254) and developed (chloroform:methanol ammonia (25%)=90:20:0.5, by volume). Subsequently, Image Reader FLA 5000 (product of FUJIFILM Corporation) was used to measure the fluorescence derived from the substrate, and Science Lab 2001 ImageGauge (product of FUJIFILM Corporation) was used to calculate the inhibitory rate of substrate decomposition.

T1 sequence (Q9I596 25-670): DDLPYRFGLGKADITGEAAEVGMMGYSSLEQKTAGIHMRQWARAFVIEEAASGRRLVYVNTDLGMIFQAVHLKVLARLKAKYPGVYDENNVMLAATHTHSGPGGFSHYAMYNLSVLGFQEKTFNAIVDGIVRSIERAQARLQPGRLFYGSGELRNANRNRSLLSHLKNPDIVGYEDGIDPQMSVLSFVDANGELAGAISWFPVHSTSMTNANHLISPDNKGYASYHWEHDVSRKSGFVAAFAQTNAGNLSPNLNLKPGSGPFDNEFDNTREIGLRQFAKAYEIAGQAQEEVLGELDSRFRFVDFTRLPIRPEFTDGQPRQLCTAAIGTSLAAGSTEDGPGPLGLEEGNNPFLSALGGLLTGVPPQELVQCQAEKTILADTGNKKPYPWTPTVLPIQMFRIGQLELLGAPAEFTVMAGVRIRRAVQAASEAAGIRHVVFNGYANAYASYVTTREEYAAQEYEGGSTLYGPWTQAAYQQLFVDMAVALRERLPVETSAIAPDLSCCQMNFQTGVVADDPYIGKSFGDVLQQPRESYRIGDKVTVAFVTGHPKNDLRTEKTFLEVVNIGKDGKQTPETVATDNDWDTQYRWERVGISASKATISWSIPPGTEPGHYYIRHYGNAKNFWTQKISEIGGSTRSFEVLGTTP

**Q.** Which “number of mast cells in mouse skin pieces” value (NC/Nga mice; NC/Nga female mice, defatting + ceramidase + 0.2 mL ceramidastin 1 mg/mL on skin, 47 times, toluidine blue, ceramidase-applied 22.6±8.5, untreated 13.04±4.38) does the source give for `CCCCCCC(O)C1C2=C(CC(C(O)C(O)C/C=C/CO)CC3=C(C(=O)OC3=O)C1O)C(=O)OC2=O` (stereo not drawn) [ceramidastin] here?
**A.** Its value is 15.5±5.2.

**Q.** What about the “effect on increase in the number of mast cells” value (NC/Nga mice; ceramidase+ceramidastin-applied skin pieces vs ceramidase-applied skin pieces, NC/Nga mice) of the same compound?
**A.** Its value is “significantly inhibited”.

**Q.** What about the IC50 [1] of the same compound?
**A.** The IC50 was 12 µM.
